According to patent US10689383B2, “Optionally fused heterocyclyl-substituted derivatives of pyrimidine useful for the treatment of inflammatory, metabolic, oncologic and autoimmune diseases” (NUEVOLUTION A/S, priority 2014, dated 2020):

molecular target: T1, human RORγt (Ligand Binding Domain) (Homo sapiens, UniProt P51449); test: Fluorescence Polarization (FP) Assay; settings: Fluorescence Polarization (FP) Assay; values given as upper bounds of activity ranges; read-out: FP activity range
T1 construct: purchased Crelux (Planegg, Germany) batch no PC5032-1
T1 sequence (P51449 269-508 limits assumed): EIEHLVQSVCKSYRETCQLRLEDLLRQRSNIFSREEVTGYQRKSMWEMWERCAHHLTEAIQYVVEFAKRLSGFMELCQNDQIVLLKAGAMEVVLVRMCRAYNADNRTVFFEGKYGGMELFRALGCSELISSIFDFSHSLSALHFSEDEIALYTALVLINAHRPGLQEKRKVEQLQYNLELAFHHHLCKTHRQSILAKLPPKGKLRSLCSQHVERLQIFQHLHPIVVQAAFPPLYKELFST
Description: The activity of the compounds was evaluated using a Fluorescence Polarization (FP) Assay and, in most cases, a Th17 Assay and/or RORγ Reporter assay (also referred to as Gal4 assay). The FP assay is an in vitro assay monitoring binding within the ligand binding pocket. The RORγ and the Th17 assays are both cell-based assays monitoring functional activity of the compound assayed.
The total volume was 25 μl, in a black Perkin Elmer OptiPlate. As negative control, 1 μl DMSO was used. […] The probe is a fluorescently labeled (TAMRA) RORγt ligand identified by Nuevolution with a total molecular weight of 910 g/mole as shown in Graph A in FIG. 1.

O=C1CC(CNc2ncnc(N3CCCC3c3ccc(C(F)(F)F)cc3)c2F)CN1C1CCCC1 (centres unmarked) [Example 130, 1-cyclopentyl-4-[[[5-fluoro-6-[2-[4-(trifluoromethyl)phenyl]pyrrolidin-1-yl]pyrimidin-4-yl]amino]methyl]pyrrolidin-2-one] and Fc1c(NCC2CCC2)ncnc1N1CCCC1c1ccc(C(F)(F)F)cc1 (centres unmarked) [Example 151, N-(cyclobutylmethyl)-5-fluoro-6-[2-[4-(trifluoromethyl)phenyl]pyrrolidin-1-yl]pyrimidin-4-amine] cannot be ordered by IC50: less than 10 µM for the first, less than 10 µM for the second.

CCC(C(=O)NCc1ccoc1C(N)=O)n1ccc2c(N3CCCC3c3ccc(-c4ccccc4)cc3)ncnc21 (centres unmarked) [Example 4, 3-[[2-[4-[2-(4-phenylphenyl)pyrrolidin-1-yl]pyrrolo[2,3-d]pyrimidin-7-yl]butanoylamino]methyl]furan-2-carboxamide] and O=C(O)Cc1ccc(CNc2ncnc(N3CCCC3c3ccc(C(F)(F)F)cc3)c2F)cc1 (centres unmarked) [Example 32, 2-[4-[[[5-fluoro-6-[2-[4-(trifluoromethyl)phenyl]pyrrolidin-1-yl]pyrimidin-4-yl]amino]methyl]phenyl]acetic acid] cannot be ordered by IC50: less than 0.5 µM for the first, less than 0.5 µM for the second.

CC(C)(C)CC(Nc1ncnc(N2CCCC2c2ccc3c(c2)OCCO3)c1F)C(N)=O (stereo in doubt) [Example 24, (2R)-2-[[6-[2-(2,3-dihydro-1,4-benzodioxin-6-yl)pyrrolidin-1-yl]-5-fluoro-pyrimidin-4-yl]amino]-4,4-dimethyl-pentanamide] and Fc1c(NCC2CCOC2)ncnc1N1CCC[C@@H]1c1ccc(C(F)(F)F)cc1 (stereo partly drawn) [Example 154, 5-fluoro-N-(tetrahydrofuran-3-ylmethyl)-6-[(2R)-2-[4-(trifluoromethyl)phenyl]pyrrolidin-1-yl]pyrimidin-4-amine] cannot be ordered by IC50: less than 0.5 µM for the first, less than 0.5 µM for the second.

O=C1CC2(CCCN(c3ncnc(N4CCCC4c4ccc(C(F)(F)F)cc4)c3F)C2)CN1 (centres unmarked) [Example 134, 9-[5-fluoro-6-[2-[4-(trifluoromethyl)phenyl]pyrrolidin-1-yl]pyrimidin-4-yl]-3,9-diazaspiro[4.5]decan-2-one] and Fc1c(NCC2CCCCO2)ncnc1N1CCC[C@@H]1c1ccc(C(F)(F)F)cc1 (stereo partly drawn) [Example 155, 5-fluoro-N-(tetrahydropyran-2-ylmethyl)-6-[(2R)-2-[4-(trifluoromethyl)phenyl]pyrrolidin-1-yl]pyrimidin-4-amine] cannot be ordered by IC50: less than 10 µM for the first, less than 10 µM for the second.

NC(=O)[C@@H](Cc1cc(F)c(F)cc1F)Nc1ncnc(N2CCCC2c2nc3ccccc3s2)c1F (stereo partly drawn) [Example 9, (2R)-2-[[6-[2-(1,3-benzothiazo1-2-yl)pyrrolidin-1-yl]-5-fluoro-pyrimidin-4-yl]amino]-3-(2,4,5-trifluorophenyl)propanamide] and Fc1c(NCc2ccccc2)ncnc1N1CCCC1c1ccc(C(F)(F)F)cc1 (centres unmarked) [Example 139, N-benzyl-5-fluoro-6-[2-[4-(trifluoromethyl)phenyl]pyrrolidin-1-yl]pyrimidin-4-amine] cannot be ordered by IC50: less than 0.5 µM for the first, less than 2 µM for the second.

CS(=O)(=O)NC1CCCC1CNc1ncnc(N2CCOC[C@@H]2c2ccc(C(F)(F)F)cc2)c1F (stereo partly drawn) [Example 251, N-[2-[[[5-fluoro-6-[(3S)-3-[4-(trifluoromethyl)phenyl]morpholin-4-yl]pyrimidin-4-yl]amino]methyl]cyclopentyl] methanesulfonamide] and CS(=O)(=O)N1CCOC(CNc2ncnc(N3CCOC[C@@H]3c3ccc(C(F)(F)F)cc3)c2F)C1 (stereo partly drawn) [Example 309, 5-fluoro-N-[(4-methylsulfonylmorpholin-2-yl)methyl]-6-[(3S)-3-[4-(trifluoromethyl)phenyl]morpholin-4-yl]pyrimidin-4-amine] cannot be ordered by IC50: less than 10 µM for the first, less than 2 µM for the second.

NCCNC(=O)C1(CNc2ncnc(N3CCOC[C@@H]3c3ccc(C(F)(F)F)cc3)c2F)CCOCC1 [Example 256, N-(2-aminoethyl)-4-[[[5-fluoro-6-[(3S)-3-[4-(trifluoromethyl)phenyl]morpholin-4-yl]pyrimidin-4-yl]amino]methyl]tetrahydropyran-4-carboxamide] and CN(C)C(=O)C1(CNc2ncnc(N3CCOC[C@@H]3c3ccc(C(F)(F)F)cc3)c2F)CCCC1 [Example 250, 1-[[[5-fluoro-6-[(3S)-3-[4-(trifluoromethyl)phenyl]morpholin-4-yl]pyrimidin-4-yl]amino]methyl]-N,N-dimethyl-cyclopentanecarboxamide] cannot be ordered by IC50: less than 10 µM for the first, less than 10 µM for the second.

CCc1ccc(CN(C)c2ncnc(N3CCCC3c3ccc(C(F)(F)F)cc3)c2F)nc1 (centres unmarked) [Example 136, N-[(5-ethyl-2-pyridyl)methyl]-5-fluoro-N-methyl-6-[2-[4-(trifluoromethyl)phenyl]pyrrolidin-1-yl]pyrimidin-4-amine] and CN1CC(CN(C)c2ncnc(N3CCCC3c3ccc(C(F)(F)F)cc3)c2F)CC1=O (centres unmarked) [Example 135, 4-[[[5-fluoro-6-[2-[4-(trifluoromethyl)phenyl]pyrrolidin-1-yl]pyrimidin-4-yl]-methyl-amino]methyl]-1-methyl-pyrrolidin-2-one] cannot be ordered by IC50: less than 2 µM for the first, less than 10 µM for the second.

Fc1c(NCc2ccc(-c3nnn[nH]3)cc2)ncnc1N1CCCC1c1ccc(C(F)(F)F)cc1 (centres unmarked) [Example 138, 5-fluoro-N-[[4-(1H-tetrazol-5-yl)phenyl]methyl]-6-[2-[4-(trifluoromethyl)phenyl]pyrrolidin-1-yl]pyrimidin-4-amine] and O=C(O)c1ccc(CNc2ncnc(N3CCCC3c3ccc(C(F)(F)F)cc3)c2F)cc1 (centres unmarked) [Example 44, 4-[[[5-fluoro-6-[2-[4-(trifluoromethyl)phenyl]pyrrolidin-1-yl]pyrimidin-4-yl]amino]methyl]benzoic acid] cannot be ordered by IC50: less than 0.5 µM for the first, less than 10 µM for the second.

CC1(C)NC(=O)N(Cc2ccc(CNc3ncnc(N4CCCC4c4ccc(C(F)(F)F)cc4)c3F)cc2)C1=O (centres unmarked) [Example 45, 3-[[4-[[[5-fluoro-6-[2-[4-(trifluoromethyl)phenyl]pyrrolidin-1-yl]pyrimidin-4-yl]amino]methyl]phenyl]methyl]-5,5-dimethyl-imidazolidine-2,4-dione] and O=C1Cc2cc(CNc3ncnc(N4CCCC4c4ccc(C(F)(F)F)cc4)c3F)ccc2N1 (centres unmarked) [Example 122, 5-[[[5-fluoro-6-[2-[4-(trifluoromethyl)phenyl]pyrrolidin-1-yl]pyrimidin-4-yl]amino]methyl]indolin-2-one] cannot be ordered by IC50: less than 10 µM for the first, less than 10 µM for the second.

CCC(Nc1ncnc(N2CCCC2c2ccc(C(F)(F)F)cc2)c1F)c1noc(C)n1 (centres unmarked) [Example 215, 5-fluoro-N-[1-(5-methyl-1,2,4-oxadiazo1-3-yl)propyl]-6-[2-[4-(trifluoromethyl)phenyl]pyrrolidin-1-yl]pyrimidin-4-amine] and CNC(=O)Cc1ccc(CNc2ncnc(N3CCOC[C@@H]3c3ccc(C(F)(F)F)cc3)c2F)cc1 [Example 244, 2-[4-[[[5-fluoro-6-[(3S)-3-[4-(trifluoromethyl)phenyl]morpholin-4-yl]pyrimidin-4-yl]amino]methyl]phenyl]-N-methyl-acetamide] cannot be ordered by IC50: less than 10 µM for the first, less than 2 µM for the second.

With NC(=O)Cc1ccc(CNc2ncnc(N3C[C@H](F)C[C@@H]3c3ccc(C(F)(F)F)cc3)c2F)cc1 (racemic) [Example 241, 2-[4-[[[5-fluoro-6-[(2R,4R)-4-fluoro-2-[4-(trifluoromethyl)phenyl]pyrrolidin-1-yl]pyrimidin-4-yl]amino]methyl]phenyl]acetamide AND 2-[4-[[[5-fluoro-6-[(2S,4S)-4-fluoro-2-[4-(trifluoromethyl)phenyl]pyrrolidin-1-yl]pyrimidin-4-yl]amino]methyl]phenyl]acetamide] the IC50 was less than 1 µM.
